Consider 24 compounds from patent US20140336182A1, “Aurora Kinase Modulators and Method of Use” (Amgen Inc., priority 2013, published 2014).

The test system of one assay is HeLa cells. The assay is described as follows: HeLa cell 24 hr ploidy assay (DNA content). The assay is classed as cell-based. As to conditions: Homo sapiens, HeLa, 4N ploidy, average, read-out: 24h_4NPloidy EC50_IP (uM Avg). As to the method:
HeLa cell 24 hr ploidy assay protocol
The purpose of this assay is to evaluate the ability of selected individual compounds to induce Deoxyribonucleic acid (DNA) content (ploidy) in cells through failed cell division. Cell cycle analysis is a rapid and efficient way to evaluate the status of DNA content (ploidy) of a given cell. HeLa cells (1×10^4 HeLa cells/well) in 100 ul of media (MEM+10% FBS) were plated in 96-well plates (Packard View) and cultured for 24 hrs at 37° C. maintained in a 5% CO2 atmosphere. […] The compounds were serially diluted in DMSO (0.25% final concentration). The cells were fixed (3.7% Formaldehyde and 1% glutaraldehyde) and permeabilized (1×PBS with 1% BSA and 0.2% Triton X-100) in preparation for nuclear staining. The well plates were stained for 45 minutes at RT in the dark using Hoechest 33342 nuclear stain at 0.5 ug.ml (Stock of 10 mg/ml, Invitrogen, CA, Cat #H3570). The nuclear stain was removed by aspiration and the cells were washed with wash buffer. A Cellomics Array Scan Vti plate reader was used to acquire the DNA ploidy data of the cells using Cell Cycle bioapplication. Numbers for each of “valid cell count/well”, “% of 4N cells” and “% of >4Ncells” were calculated with the assistance of an Activity Base 5.1ca software and dose curves were generated using an XLFit software. With XLFit, final EC50 IP and EC50 transit values, as well as the Max and Min, were calculated for each curve.
Consider `COc1cnc2c(Oc3ccc(Nc4nnc(-c5cc(C)ccn5)c5ccccc45)cc3)ccnc2c1` [compound 116, N-(4-((7-(methyloxy)-1,5-naphthyridin-4-yl)oxy)phenyl)-4-(4-methyl-2-pyridinyl)-1-phthalazinamine], for which the EC50 is 0.179 µM.

Regarding `Cc1csc(-c2nnc(Nc3ccc(Oc4ccnc5cc(C#N)ccc45)cc3)c3ccccc23)n1` [compound 86, 4-((4-((4-(4-methyl-1,3-thiazol-2-yl)-1-phthalazinyl)amino)phenyl)oxy)-7-quinolinecarbonitrile], the EC50 was found to be 0.097 µM. Still for that read-out and setting: in the case of `COc1cncc(-c2nnc(Nc3ccc(Oc4ccnc5cc(OC)cnc45)cc3)c3ccccc23)c1` [compound 129] it was 0.181 µM; in that of `COc1cnc2c(Oc3ccc(Nc4nnc(-c5cc6ccccc6n5C)c5ccccc45)cc3)ccnc2c1` [compound 143, 4-(1-methyl-1H-indol-2-yl)-N-(4-((7-(methyloxy)-1,5-naphthyridin-4-yl)oxy)phenyl)-1-phthalazinamine], 0.094 µM; in that of `CCc1cc(-c2ccccc2)nnc1Nc1ccc(Oc2ccnc3cc(C#N)ccc23)cc1` [compound 149], 0.42 µM.

Staying with this assay, now noted: Homo sapiens, HeLa, HeLa cells, 4N ploidy, average, read-out: 24h_4NPloidy EC50_IP (uM Avg).
`c1ccc(-c2nnc(Nc3ccc(Sc4ccnc5[nH]ncc45)cc3)c3ccccc23)cc1` [compound 352]: the EC50 turned out to be 0.055 µM.

For the compound `COc1cc(OC)c2c(Oc3ccc(Nc4nnc(-c5cc(C)cs5)c5ccccc45)cc3)ccnc2c1` [compound 441], the EC50 was determined as 0.008 µM.

For the compound `COc1ccc(-c2nnc(Nc3ccc(Sc4ccnc5ccoc45)cc3)c3ccccc23)cn1` [compound 485], the EC50 turned out to be 0.069 µM. On the same count and under the same terms, next, `c1cnc2c(Sc3ccc(Nc4nnc(-c5ccc6c(c5)CCO6)c5ccccc45)cc3)ccnc2c1` [compound 445]: 0.001 µM; `COc1cccc(-c2nnc(Nc3ccc(Oc4ccnc5ccccc45)c(F)c3)c3ccccc23)n1` [compound 186]: 0.031 µM.

As to `Cc1cc2nccc(Sc3ccc(Nc4nnc(-c5ccc(Cl)cn5)c5ccccc45)cc3)c2s1` [compound 560], the EC50 came to 0.023 µM.

With `COc1cnc2c(Sc3ccc(Nc4nnc(N5CCC(F)CC5)c5ccccc45)cc3)ccnc2c1` [compound 557], the EC50 turned out to be 0.026 µM.

Turning to `CCOc1nnc(Nc2ccc(Sc3ccnc4cc(OC)cnc34)cc2)c2ccccc12` [compound 512], the EC50 was 0.033 µM. For `COc1cc2c(Oc3ccc(Nc4nnc(-c5ccccc5)c5ccccc45)cc3)ccnc2cc1O` [compound 422], the EC50 is 0.01 µM.

`COc1ccc(-c2nnc(Nc3ccc(Sc4ccnc5cccnc45)cc3)c3ccccc23)cn1` [compound 509]: the EC50 is 0.008 µM.

As for `Cc1ccc(-c2nnc(Nc3ccc(Oc4ccnc5cc(-c6cncn6C)sc45)cc3)c3ccccc23)cc1` [compound 203], the EC50 amounted to 0.002 µM. For `COc1ccc2nccc(Oc3ccc(Nc4nnc(-c5ccccc5)c5ccccc45)cc3)c2c1` [compound 238], the EC50 was determined as 0.053 µM.

Consider `COc1cnc2c(Oc3ccc(Nc4nnc(N5CCSCC5)c5ccccc45)cc3)ccnc2c1` [compound 337], for which the EC50 was 0.229 µM. Take `COc1cnc2c(Oc3ccc(Nc4nnc(-c5ccc(F)cc5)c5ccccc45)cc3)ccnc2c1` [compound 220, 4-(4-fluorophenyl)-N-(4-((7-(methyloxy)-1,5-naphthyridin-4-yl)oxy)phenyl)-1-phthalazinamine]: the EC50 worked out at 0.036 µM. The same measure, in the same setting: in the case of `Clc1ccc(-c2nnc(Nc3ccc(Sc4ccnc5ccoc45)cc3)c3ccccc23)cc1` [compound 465] it was 0.02 µM.

`Cn1cncc1-c1cc2nccc(Oc3ccc(Nc4nnc(-c5ccc(Cl)cc5)c5ccccc45)cn3)c2s1` [compound 267]: the EC50 came out at 0.013 µM. Same read-out and setting: next, `Cc1cccc(-c2nnc(Nc3ccc(Sc4ccnc5cccnc45)cc3)c3ccccc23)n1` [compound 421]: 0.051 µM.

Staying with this assay, now noted: Homo sapiens, HeLa, HeLa cells, 4N ploidy, given as class symbol, read-out: 24h_4NPloidy EC50_IP (uM Avg).
With `Fc1cc(F)c2c(Sc3ccc(Nc4nnc(-c5ccccc5)c5ccccc45)cc3)ccnc2c1` [compound 295], the EC50 is less than 0.1 µM.

The same assay, now with this note: Homo sapiens, HeLa, HeLa cells, average, read-out: 24h_4NPloidy EC50_IP (uM Avg).
Consider `COc1ccc2c(C(C)c3ccc(Nc4nnc(-c5ccc(Cl)cc5)c5ccccc45)cc3)ccnc2c1` (stereo not drawn) [compound 613], for which the EC50 is more than 1.2 µM.
